Reference: USRE38257E1, “Piperdine derivatives and hypotensives containing the same” (Ajinomoto Co., Inc., priority 1988, dated 2003)

System: male spontaneously hypertensive rats
Assay: Decrease in systolic blood pressure in spontaneously hypertensive rats after intravenous bolus injection, indirect (tail-cuff) method
Type: in vivo, rat
Details: for Decrease in systolic blood pressure (mmHg) time after administration (hour) 0.5: 0.5 hour after administration; for Decrease in systolic blood pressure (mmHg) time after administration (hour) 4: 4 hours after administration
Protocol: As test animals, four male spontaneously hypertensive rats (weight 400 to 440 g) that were sufficiently adapted for feeding and in which hypertension was confirmed were used.
Physiological saline aqueous solution containing 2.5% Nicolle and 2.5% ethanol of sample was intravenously administered by bolus injection at a dose of 1 ml per 1 kg of body weight. Systolic blood pressure after administration was measured by the indirect (tail-cuff) method.

Compound	Decrease in systolic blood pressure (mmHg) time after administration (hour) 0.5 (dose 10 mg/kg i.v. bolus)	Decrease in systolic blood pressure (mmHg) time after administration (hour) 4 (dose 10 mg/kg i.v. bolus)	Decrease in systolic blood pressure (mmHg) time after administration (hour) 0.5 (dose 3 mg/kg i.v. bolus)	Decrease in systolic blood pressure (mmHg) time after administration (hour) 4 (dose 3 mg/kg i.v. bolus)
C1=Cc2ccccc2C(=C2CCN(CCCCCCc3ccccc3)CC2)c2ccccc21.Cl [Example 17, 6-(4-(5H-Dibenzo[a,d]cyclohepten-5-ylidene)-1-piperidinyl)-1-phenylhexane hydrochloride]	−84 mmHg	−16 mmHg	–	–
Cl.N#CC(CCCN1CCC(=C2c3ccccc3C=Cc3ccccc32)CC1)c1cccc(C(F)(F)F)c1 (stereo not shown) [Example 59, 5-(4-(5H-Dibenzo[a,d]cyclohepten-5-ylidene)-1-piperidinyl)-2-(3-trifluoromethylphenyl)valeronitrile hydrochloride]	−87 mmHg	−21 mmHg	–	–
COc1ccc(C(=O)CCCN2CCC(=C3c4ccccc4CCc4ccccc43)CC2)cc1OC.Cl [Example 187, 4-(4-(10,11-Dihydro-5H-dibenzo[a,d]cyclohepten-5-ylidene)-1-piperidinyl)-3′,4′-dimethoxy-butyrophenone hydrochloride]	−47 mmHg	−9 mmHg	–	–
C1=Cc2ccccc2C(=C2CCN(CCCOC3CCCCO3)CC2)c2ccccc21.Cl (stereo not shown) [Example 235, 3-(4-(5H-Dibenzo[a,d]cyclohepten-5-ylidene)-1-piperidinyl)-1-propyl(2-tetrahydropyranyl)ether hydrochloride]	−99 mmHg	−5 mmHg	–	–
COc1ccccc1CN1CCC(=C2c3ccccc3C=Cc3ccccc32)CC1.Cl [Example 117, 4-(5H-Dibenzo[a,d]cyclohepten-5-ylidene)-1-(2-methoxybenzyl)piperidine hydrochloride]	−143 mmHg	−25 mmHg	–	–
COC(=O)C1(CCCN2CCC(=C3c4ccccc4C=Cc4ccccc43)CC2)CCCCC1.Cl [Example 314, 1-(3-(4-(5H-Dibenzo[a,d]cyclohepten-5-ylidene)-1-piperidinyl)-1-propyl)-1-methoxycarbonylcyclohexane hydrochloride]	−61 mmHg	−11 mmHg	–	–
Cl.OC(CCN1CCC(=C2c3ccccc3C=Cc3ccccc32)CC1)c1ccc(F)cc1 (stereo not shown) [Example 107, 3-(4-(5H-Dibenzo[a,d]cyclohepten-5-ylidene)-1-piperidinyl)-1-hydroxy-1-(4-fluorophenyl)propane hydrochloride]	−88 mmHg	−11 mmHg	–	–
COC(=O)c1ccccc1C=CCN1CCC(=C2c3ccccc3C=Cc3ccccc32)CC1.Cl [Example 374, 4-(5H-Dibenzo[a,d]cyclohepten-5-ylidene)-1-(2-methoxycarbonylcinnamyl)piperidine hydrochloride]	–	–	−119 mmHg	11 mmHg
CC(=O)Nc1ccccc1C=CCN1CCC(=C2c3ccccc3C=Cc3ccccc32)CC1.Cl [Example 304, 1-(2-Acetylaminocinnamyl)-4-(5H-dibenzo[a,d]cyclohepten-5-ylidene)-1-piperidine hydrochloride]	−49 mmHg	−5 mmHg	–	–
CC(=O)N(CCCN1CCC(=C2c3ccccc3C=Cc3ccccc32)CC1)C1CCCCC1.Cl [Example 267, N-Acetyl-N-(3-4-(5H-Dibenzo[a,d]cyclohepten-5-ylidene)-1-piperidinyl)-1-propylcyclohexylamine hydrochloride]	−40 mmHg	0 mmHg	–	–
COc1ccc(C(=O)C(CCN2CCC(=C3c4ccccc4C=Cc4ccccc43)CC2)C(C)C)cc1OC.Cl (stereo not shown) [Example 275, 4-(4-(5H-Dibenzo[a,d]cyclohepten-5-ylidene)-1-piperidinyl)-2-(2-propyl)-3′,4′-dimethoxybutyrophenone hydrochloride]	−66 mmHg	−20 mmHg	–	–
Cl.O=[N+]([O-])c1cccc2c1CC(CN1CCC(=C3c4ccccc4C=Cc4ccccc43)CC1)C2 (stereo not shown) [Example 329, 2-(4-(5H-Dibenzo[a,d]cyclohepten-5-ylidene)-1-piperidinyl)methyl-4′-nitroindan hydrochloride]	−34 mmHg	−7 mmHg	–	–
C1=Cc2ccccc2C(=C2CCN(CCOCC3CCCCC3)CC2)c2ccccc21.Cl [Example 279]	–	–	−83 mmHg	−24 mmHg
CCCCCCCCN1CCC(=C2c3ccccc3C=Cc3ccccc32)CC1.Cl [Example 2, 4-(5H-Dibenzo[a,d]cyclohepten-5-ylidene)-1-octylpiperidine hydrochloride]	−125 mmHg	−34 mmHg	–	–
COc1cccc(C=CC(=O)N2CCC(=C3c4ccccc4C=Cc4ccccc43)CC2)c1OC [Example 192, 4-(5H-Dibenzo[a,d]cyclohepten-5-ylidene)-1-(2-dimethoxycinnamoyl)piperidine]	−25 mmHg	−36 mmHg	–	–
CC(CC(=O)c1ccccc1)N1CCC(=C2c3ccccc3C=Cc3ccccc32)CC1.Cl (stereo not shown) [Example 100, 3-(4-(5H-Dibenzo[a,d]cyclohepten-5-ylidene)-1-piperidinyl)butyrophenone hydrochloride]	−35 mmHg	−5 mmHg	–	–
Cl.OCC1(CCCCN2CCC(=C3c4ccccc4C=Cc4ccccc43)CC2)CCCCC1 [Example 272, 1-(4-(4-(5H-Dibenzo[a,d]cyclohepten-5-ylidene)-1-piperidinyl)-1-butyl)-1-hydroxymethylcyclohexane hydrochloride]	−76 mmHg	−3 mmHg	–	–
COc1cc2c(cc1OC)CC(CN1CCC(=C3c4ccccc4C=Cc4ccccc43)CC1)C2.Cl [Example 287, 2-(4-(5H-Dibenzo[a,d]cyclohepten-5-ylidene)-1-piperidinyl)methyl-5′,6′-dimethoxyindan hydrochloride]	−83 mmHg	−16 mmHg	–	–
1-(4-Methoxyxyxlohexyl)-4-(4-(5H-dibenzo[a,d]cyclohepten-5-ylidene)-1-piperidinyl)butane hydroxybutane hydrochloride [Example 208]	−131 mmHg	−19 mmHg	–	–
COc1cccc(CN2CCC(=C3c4ccccc4C=Cc4ccccc43)CC2)c1OC.Cl [Example 173, 4-(5H-Dibenzo[a,d]cyclohepten-5-ylidene)-1-(2,3-dimethoxybenzyl)piperidine hydrochloride]	−98 mmHg	−25 mmHg	–	–
CCCC(CCN1CCC(=C2c3ccccc3C=Cc3ccccc32)CC1)C(=O)c1ccc(OC)c(OC)c1.Cl (stereo not shown) [Example 277, 4-(4-(5H-dibenzo[a,d]cyclohepten-5-ylidene)-1-piperidinyl)-2-(1-propyl)-3′,4′-dimethoxybutyrophenone hydrochloride]	−27 mmHg	0 mmHg	–	–
CCCCC(O)(CCCN1CCC(=C2c3ccccc3C=Cc3ccccc32)CC1)c1ccc(OC)c(OC)c1.Cl (stereo not shown) [Example 207, 1-butyl-4-(4-(5H-dibenzo[a,d]cyclohepten-5-ylidene)-1-piperidinyl)-1-(3,4-dimethoxy)phenyl-1-hydroxybutane hydroxybutane hydrochloride]	−98 mmHg	−43 mmHg	–	–
CC(C)C(C#N)(CCCN1CCC(=C2c3ccccc3C=Cc3ccccc32)CC1)c1cccc(C(F)(F)F)c1.Cl (stereo not shown) [Example 60, 5-(4-(5H-Dibenzo[a,d]cyclohepten-5-ylidene)-1-piperidinyl)-2-isopropyl-2-(3-trifluoromethylphenyl)valeronitrile hydrochloride]	−121 mmHg	−48 mmHg	–	–
Cl.Fc1ccccc1CN1CCC(=C2c3ccccc3C=Cc3ccccc32)CC1 [Example 111, 4-(5H-Dibenzo[a,d]cyclohepten-5-ylidene)-1-(2-fluorobenzyl)piperidine hydrochloride]	−98 mmHg	−13 mmHg	–	–
Cl.O=[N+]([O-])c1cccc(CN2CCC(=C3c4ccccc4C=Cc4ccccc43)CC2)c1 [Example 142, 4-(5H-Dibenzo[a,d]cyclohepten-5-ylidene)-1-(3-nitrobenzyl)piperidine hydrochloride]	−43 mmHg	0 mmHg	–	–
C1=Cc2ccccc2C(=C2CCN(CCCC3CCCCN3)CC2)c2ccccc21.Cl.Cl (stereo not shown) [Example 307, 3-(4-(5H-Dibenzo[a,d]cyclohepten-5-ylidene)-1-piperidinyl)-1-(2-piperidinyl)propane dihydrochloride]	−62 mmHg	−20 mmHg	–	–
